The nature of this data set: Transmission electron microscopy of fibrils. Format: physicochemical. As to conditions: 1.0 mg/mL in PBS pH 7.4, TEM, uranyl acetate stain. Here is the method:
All peptides were dissolved in Eppendorf Low Retention Tubes in 1.0 mL of PBS pH 7.4. The concentration of the solutions of peptides was 1.0 mg/mL. The peptides were incubated at 37 °C with constant orbital shaking. Aliquots for the evaluation of the fibrillization process were taken before incubation and after 1, 2, 3, 6, 14, and 21 days or only after 7 days, depending on the experiments.
Peptide samples (5 µL) were applied on a glow-discharged carbon-coated copper grid (400 mesh). After 1 min of adsorption, excess liquid was removed using filter paper, and the samples were stained with 2% (v/v) aqueous uranyl acetate. The samples were examined with a TECNAI SPIRIT BIO TWIN FEI (FEI Company, Hillsboro, OR, USA) at 120 kV, with nominal magnifications between 11,500 and 39,000. The assay was performed for samples before (after dissolution) and after 3 days of incubation.

Each structure is given as a SMILES string. Where a SMILES comes first, the peptide text is derived from it.

With `CC[C@H](C)[C@H](NC(=O)CNC(=O)[C@H](C)NC(=O)[C@H](CCC(N)=O)NC(=O)CNC(=O)CNC(=O)CNC(=O)[C@@H](NC(=O)[C@@H]1CCCN1C(=O)[C@H](C)NC(=O)[C@H](C)NC(=O)CNC(=O)CNC(=O)CNC(=O)[C@H](CCCCN)NC(=O)[C@H](Cc1c[nH]cn1)NC(=O)CNC(=O)[C@H](CCCCN)NC(C)=O)C(C)C)C(=O)N[C@H](C(=O)N[C@H](C(N)=O)C(C)C)C(C)C` [FC-KGHK] (Ac-KGHKGGGAAPVGGGQAGIVV-NH2), the “fibril thickness (TEM)” value is 10–12 nm.

Source of the values: PMC8067766 (International Journal of Molecular Sciences, 2021).
